Results: publication PMC2649788 (Drug metabolism and disposition: the biological fate of …, 2008)
Changes are numbered by the printed parent chain. Several values for one entry are separate records, joined by “and”; a condition that tells them apart may be missing. Identical values can stand only once.

Legend:
[1] = test system: 2B6*1/*4 genotype; conditions: individuals with 2B6*1/*4 genotype, single dose; ref Kirchheiner at al., 2003; cited from earlier work
[2] = test system: K262R; conditions: bupropion to hydroxybupropion; ref Bumpus et al., 2005; cited from earlier work
[3] = molecular target: T1, CYP2B6dH (Homo sapiens, UniProt P20813); conditions: for Predicted in vivo % activity (CYP2B6dH): remaining efavirenz metabolism relative to no inhibitor; for Predicted inhibition of efavirenz metabolism (CYP2B6dH): in vivo prediction
T1 sequence (P20813 with tags, fused parts or gaps limits assumed): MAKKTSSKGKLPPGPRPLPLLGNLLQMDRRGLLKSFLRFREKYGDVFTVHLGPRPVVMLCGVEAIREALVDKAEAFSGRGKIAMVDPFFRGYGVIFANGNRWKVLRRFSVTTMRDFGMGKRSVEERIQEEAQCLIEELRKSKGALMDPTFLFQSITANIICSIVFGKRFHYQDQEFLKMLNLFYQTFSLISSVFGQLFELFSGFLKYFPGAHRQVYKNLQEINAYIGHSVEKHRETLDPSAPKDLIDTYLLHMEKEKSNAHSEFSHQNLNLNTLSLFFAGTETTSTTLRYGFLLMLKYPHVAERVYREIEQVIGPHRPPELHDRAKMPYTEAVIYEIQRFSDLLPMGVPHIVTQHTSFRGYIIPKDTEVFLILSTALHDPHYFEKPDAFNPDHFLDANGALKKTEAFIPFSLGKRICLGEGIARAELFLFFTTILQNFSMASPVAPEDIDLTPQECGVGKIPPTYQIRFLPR

[4] = read-out: Estimated in vivo Cmax; plasma, normal population; used as [I]; ref www.mentalhealth.com, www.medscape.com, www.pharmgkb.org, Burgess and Bodey, 1972, Goodwin and Drew, 2007; cited from earlier work
[5] = molecular target: T2, K262R (2B6*4) (Homo sapiens, UniProt P20813, K262R); assay: 7-MFC O-deethylation inhibition in standard reconstitution system; conditions: for Increase in Ki, K262R compared with CYP2B6dH: 7-MFC O-deethylation
T2 sequence (P20813 with tags, fused parts or gaps K262R limits assumed): T1 sequence (P20813 with tags, fused parts or gaps limits assumed) with K243R

[6] = test system: K262R; set-up: species or system human
[7] = molecular target: T3, Q172H/K262R (2B6*6) (Homo sapiens, UniProt P20813, K262R/Q172H); assay: 7-MFC O-deethylation inhibition in standard reconstitution system; conditions: for Increase in Ki, Q172H/K262R compared with CYP2B6dH: 7-MFC O-deethylation; for Ki: Ki (Q172H/K262R), 7-MFC 25, 50, 100, 150 μM, global fit, duplicate
T3 sequence (P20813 with tags, fused parts or gaps Q172H/K262R limits assumed): T1 sequence (P20813 with tags, fused parts or gaps limits assumed) with Q153H, K243R

[8] = molecular target: T2, K262R (2B6*4); assay: Spectral binding; conditions: for ΔAmax (K262R): difference spectra, 1 μM P450; for ΔAmax, K262R compared with wild-type / Higher Ks, K262R compared with CYP2B6dH: spectral binding
[9] = molecular target: T1, CYP2B6dH; assay: Spectral binding; conditions: for Type of difference spectrum induced: CYP2B6dH and K262R, peak ~388 nm, trough ~420 nm; for ΔAmax (CYP2B6dH): difference spectra, 1 μM P450
[10] = test system: K262R; conditions: in contrast to CYP2B6dH, ref Bumpus et al., 2005, 2006; cited from earlier work
[11] = molecular target: T4, CYP2B6 Q172H/K262R (2B6*6) (Homo sapiens, UniProt P20813, K262R/Q172H); assay: 7-MFC O-deethylation inhibition in standard reconstitution system; conditions: human, pH 7.4
T4 sequence (P20813 with tags, fused parts or gaps Q172H/K262R limits assumed): T1 sequence (P20813 with tags, fused parts or gaps limits assumed) with Q153H, K243R

[12] = molecular target: T3, Q172H/K262R (2B6*6)
[13] = molecular target: T5, CYP2B6 K262R (2B6*4) (Homo sapiens, UniProt P20813, K262R); assay: 7-MFC O-deethylation inhibition in standard reconstitution system; conditions: human, pH 7.4
T5 sequence (P20813 with tags, fused parts or gaps K262R limits assumed): T1 sequence (P20813 with tags, fused parts or gaps limits assumed) with K243R

[14] = molecular target: T1, CYP2B6dH
[15] = molecular target: T1, CYP2B6dH; assay: 7-MFC O-deethylation inhibition in standard reconstitution system; conditions: pH 7.4
[16] = test system: *1/*4 heterozygotes; conditions: ref Rotger et al., 2007; cited from earlier work
[17] = test system: K262R; conditions: ref Bumpus et al., 2006, cited from earlier work
[18] = molecular target: T1, CYP2B6dH; conditions: ref Bumpus et al., 2006, cited from earlier work
[19] = test system: K262R; format: biochemical, human; conditions: type II inhibitors; Supporting table 1

## CC(NC(C)(C)C)C(=O)c1cccc(Cl)c1 (stereo not drawn) [bupropion]
[1]
  Increased clearance: 1.3 fold
[2]
  Increased kcat, K262R compared with CYP2B6dH: > 2 fold

## O=C(c1ccc(OCCN2CCCCC2)cc1)c1c(-c2ccc(O)cc2)sc2cc(O)ccc12 [Raloxifene, raloxifene]
[3]
  Predicted in vivo % activity (CYP2B6dH): would not alter
[4]
  Cmax: 3 nM

## Clc1ccccc1C(c1ccccc1)(c1ccccc1)n1ccnc1 [Clotrimazole, clotrimazole]
[3]
  Predicted in vivo % activity (CYP2B6dH): 6%
[4]
  Cmax: 3700 nM
[5]
  Increase in Ki, K262R compared with CYP2B6dH: similar

## COC(=O)[C@H](c1ccccc1Cl)N1CCc2sccc2C1 [Clopidogrel, clopidogrel]
[6]
  Predicted in vivo activity (K262R): 0.27 (7.6) min^−1
[7]; listed as clopidogrel
  Increase in Ki, Q172H/K262R compared with CYP2B6dH: > 6 fold and 6 fold
[7]
  Ki: 0.6 µM and 0.59 µM and 0.63 µM
[8]
  Kd: 0.33 ± 0.14 µM
  ΔAmax (K262R): 0.030 ± 0.002
  ΔAmax, K262R compared with wild-type: similar
[9]
  Kd: 0.16 ± 0.11 µM
  Type of difference spectrum induced: type I
  ΔAmax (CYP2B6dH): 0.026 ± 0.002
[4]
  Cmax: 9300 nM
[5]
  Increase in Ki, K262R compared with CYP2B6dH: 4 fold
[5]; listed as clopidogrel
  Increase in Ki, K262R compared with CYP2B6dH: > 3 fold

## Clc1ccccc1CN1CCc2sccc2C1 [Ticlopidine, ticlopidine]
[6]
  Predicted in vivo activity (K262R): 0.47 (13) min^−1
[8]
  ΔAmax (K262R): 0.025 ± 0.001
  Higher Ks, K262R compared with CYP2B6dH: No significant changes
  ΔAmax, K262R compared with wild-type: similar
[9]
  Type of difference spectrum induced: type I
  ΔAmax (CYP2B6dH): 0.023 ± 0.001
[4]
  Cmax: 1600 nM
[5]
  Increase in Ki, K262R compared with CYP2B6dH: similar

## CC(C)=CCC/C(C)=C/COc1c2ccoc2cc2oc(=O)ccc12 [bergamottin]
[10]
  Susceptibility of K262R to mechanism-based inactivation: preserved

## COc1ccc2c(C(F)(F)F)cc(=O)oc2c1 [7-MFC, 7-Methoxy-4-(trifluoromethyl) coumarin]
[11]
  Km at 5 min: 49 µM
[7]
  kcat for 7-MFC oxidation (Q172H/K262R): 0.0217 s⁻¹
[12]
  Km higher, Q172H/K262R vs CYP2B6dH or K262R: ~ 10 fold
  kcat lower, Q172H/K262R vs CYP2B6dH or K262R: > 2 fold
[13]
  Km at 5 min: 5 µM
[5]
  kcat for 7-MFC oxidation (K262R): 0.0817 s⁻¹
[14]
  kcat for 7-MFC oxidation (CYP2B6dH): 0.0633 s⁻¹
[15]
  Km at 5 min: 5.1 µM

## O=C1Nc2ccc(Cl)cc2[C@@](C#CC2CC2)(C(F)(F)F)O1 [efavirenz]
[16]
  Reduced area under plasma concentration (AUC): 17%
[17]; efavirenz to 8-hydroxyefavirenz
  Increased catalytic efficiency, K262R compared with CYP2B6dH: ~ 2 fold
[17]; read-out: Km for efavirenz hydroxylation (K262R)
  Km: 15.9 µM
[17]
  kcat for efavirenz hydroxylation (K262R): 0.132 s⁻¹
[10]
  Susceptibility of K262R to mechanism-based inactivation: refractory
[18]; read-out: Km for efavirenz hydroxylation (CYP2B6dH)
  Km: 14.3 µM
[18]
  kcat for efavirenz hydroxylation (CYP2B6dH): 0.0717 s⁻¹

## O=[N+]([O-])c1ccc(Cc2ccncc2)cc1 [4-(4-nitrobenzyl)pyridine]
[19]
  Lower IC50, K262R compared with CYP2B6dH: ~ 2 fold and 2 fold

## c1ccc(-c2ccncc2)cc1 [4-(phenyl)pyridine]
[19]
  Lower IC50, K262R compared with CYP2B6dH: 10 fold

## O=C1Nc2c(O)cc(Cl)cc2[C@@](C#CC2CC2)(C(F)(F)F)O1 [8-hydroxyefavirenz]
[10]
  Susceptibility of K262R to mechanism-based inactivation: preserved

## c1ccc(-c2ccc(Cn3ccnc3)cc2)cc1 [1-(4-phenyl)benzylimidazole]
[19]
  Lower IC50, K262R compared with CYP2B6dH: ~ 2 fold and 2 fold

## CN[C@H]1CC[C@@H](c2ccc(Cl)c(Cl)c2)c2ccccc21 [Sertraline, sertraline]
[7]
  Increase in Ki, Q172H/K262R compared with CYP2B6dH: > 6 fold and > 7 fold
  Ki: 2.2 µM and 2.16 µM
[8]
  Kd: 2.06 ± 0.61 µM
  ΔAmax (K262R): 0.02 ± 0.002
  Higher Ks, K262R compared with CYP2B6dH: 4 fold
  ΔAmax, K262R compared with wild-type: 3 fold
[3]
  Predicted inhibition of efavirenz metabolism (CYP2B6dH): 52%
[9]
  Kd: 0.51 ± 0.16 µM
  Type of difference spectrum induced: type I
  ΔAmax (CYP2B6dH): 0.008 ± 0.0005
[4]
  Cmax: 620 nM
[5]
  Increase in Ki, K262R compared with CYP2B6dH: ~ 6 fold and 6 fold

## C#C[C@]1(O)CC[C@H]2[C@@H]3CCc4cc(O)ccc4[C@H]3CC[C@@]21C [17α-ethynylestradiol]
[10]
  Susceptibility of K262R to mechanism-based inactivation: refractory

## S=P(N1CC1)(N1CC1)N1CC1 [N,N′,N″-triethylenethiophosphoramide]
[10]
  Susceptibility of K262R to mechanism-based inactivation: preserved

## CCC(C)n1ncn(-c2ccc(N3CCN(c4ccc(OCC5COC(Cn6cncn6)(c6ccc(Cl)cc6Cl)O5)cc4)CC3)cc2)c1=O (stereo not drawn) [Itraconazole, itraconazole]
[6]; in vivo prediction
  Predicted inhibition of efavirenz metabolism (K262R): 20%
[8]
  Kd: 1.73 ± 0.44 µM
  ΔAmax (K262R): 0.021 ± 0.002
  Higher Ks, K262R compared with CYP2B6dH: > 20 fold and ~20 fold
  ΔAmax, K262R compared with wild-type: similar
[3]
  Predicted inhibition of efavirenz metabolism (CYP2B6dH): 43%
[9]
  Kd: 0.07 ± 0.13 µM
  Type of difference spectrum induced: type I
  ΔAmax (CYP2B6dH): 0.022 ± 0.003
[4]
  Cmax: 1900 nM
[5]
  Increase in Ki, K262R compared with CYP2B6dH: > 3 fold
